According to patent US5061794A, “Cephalosporin derivatives, and antibacterial agents” (priority 1986, dated 1991):
≈ marks a conversion by molar mass, not a printed value. Where two headings read alike, the source gives them in different places.

Key:
Ps. cepacia 23 = experiment: in vitro antibacterial activity, agar plate dilution method (MIC); type: cell-based, Pseudomonas cepacia; conditions: Burkholderia cepacia, 16 h; Ps. cepacia 23; 10^6 CFU/ml; read-out: Minimum Inhibitory Concentration (MIC)
Description: (§1) The in vitro antibacterial activities of the compounds of the present invention against various microorganisms, were measured by the following agar plate dilution method. One platinum loopfull of each test microorganism incubated overnight in Mueller Hinton broth, was inoculated to Mueller Hinton agar (inoculum size: 10^6 CFU/ml). Such culture media containing various antibiotics in various concentrations were prepared. After incubation at 37° C. for 16 hours, the minimum inhibitory concentrations (MIC: μg/ml) were measured.

E. coli CSH(RE45) = experiment: microbe, parasite or virus in culture; type: cell-based; conditions: Escherichia coli, 16 h, read-out: Minimum Inhibitory Concentration (MIC), *E. coli CSH(RE45), lactamase-producing strain; 10^6 CFU/ml
Description: as §1

E. coli CSH2 (RK1) = experiment: microbe, parasite or virus in culture; type: cell-based; conditions: Escherichia coli, 16 h, read-out: Minimum Inhibitory Concentration (MIC), *E. coli CSH2 (RK1), lactamase-producing strain; 10^6 CFU/ml
Description: as §1

P. vulgaris No. 33 = experiment: in vitro antibacterial activity, agar plate dilution method (MIC); type: cell-based; conditions: Proteus vulgaris, NO.33, 16 h, read-out: Minimum Inhibitory Concentration (MIC), *P. vulgaris No. 33, lactamase-producing strain; 10^6 CFU/ml
Description: as §1

E. coli NIHJ JC2 = experiment: as above; type: cell-based; conditions: Escherichia coli, NIHJJC2, 16 h, read-out: Minimum Inhibitory Concentration (MIC), E. coli NIHJ JC2, 10^6 CFU/ml, 37° C.
Description: as §1

E. cloacae Nek 39 = experiment: as above; type: cell-based; conditions: Enterobacter cloacae, NEK39, 16 h, read-out: Minimum Inhibitory Concentration (MIC), *E. cloacae Nek 39, lactamase-producing strain; 10^6 CFU/ml
Description: as §1

S. marcescens IAM 1184 = experiment: as above; type: cell-based; conditions: Serratia marcescens, IAM1184, 16 h, S. marcescens IAM 1184; 10^6 CFU/ml; read-out: Minimum Inhibitory Concentration (MIC)
Description: as §1

K. oxytoca GN10650 = experiment: as above; type: cell-based; conditions: Klebsiella oxytoca, 10^6 CFU/ml
Description: as §1

P. vulgaris HX-19 = experiment: as above; type: cell-based; conditions: Proteus vulgaris, HX19, 16 h, read-out: Minimum Inhibitory Concentration (MIC)
Description: as §1

K. pneumoniae PCI-602 = experiment: as above; type: cell-based; conditions: Klebsiella pneumoniae, PCI602, 16 h, 10^6 CFU/ml
Description: as §1

S. aureus 209P NIHJ-JC1 = experiment: as above; type: cell-based; conditions: Staphylococcus aureus, 16 h
Description: as §1

E. cloacae 963 = experiment: as above; type: cell-based; conditions: 10^6 CFU/ml
Description: as §1

S. marcescens No. 16-2 = experiment: as above; type: cell-based; conditions: Serratia marcescens, NO.162, 16 h
Description: as §1

E. coli GN5482 = experiment: as above; type: cell-based; conditions: Escherichia coli, GN5482, 16 h
Description: as §1

K. pneumoniae No. 42 = experiment: as above; type: cell-based; conditions: Klebsiella pneumoniae, NO.42, 16 h, read-out: Minimum Inhibitory Concentration (MIC), *K. pneumoniae No. 42, lactamase-producing strain; 10^6 CFU/ml
Description: as §1

A. calcoaceticus No. 4 = experiment: as above; type: cell-based, Acinetobacter calcoaceticus; conditions: Acinetobacter calcoaceticus, NO.4, 16 h, 10^6 CFU/ml
Description: as §1

Ps. aeruginosa AK 109 = experiment: as above; type: cell-based, Pseudomonas aeruginosa; conditions: Pseudomonas aeruginosa, AK109, 16 h
Description: as §1

Ps. aeruginosa AKR17 = experiment: as above; type: cell-based, Pseudomonas aeruginosa; conditions: Pseudomonas aeruginosa, 10^6 CFU/ml
Description: as §1

Ps. aeruginosa IF03445 = experiment: as above; type: cell-based, Pseudomonas aeruginosa; conditions: Pseudomonas aeruginosa, 10^6 CFU/ml
Description: as §1

M. morganii GN5407 = experiment: as above; type: cell-based; conditions: Morganella morganii, GN5407, 16 h, read-out: Minimum Inhibitory Concentration (MIC), *M. morganii GN5407, lactamase-producing strain; 10^6 CFU/ml
Description: as §1

[1] = GN10650, 16 h, read-out: Minimum Inhibitory Concentration (MIC), *K. oxytoca GN10650, lactamase-producing strain
[2] = S. aureus 209P NIHJ-JC1, 10^6 CFU/ml, 37° C., 16 hours, read-out: Minimum Inhibitory Concentration (MIC)
[3] = Enterobacter cloacae, 16 h, E. cloacae 963, read-out: Minimum Inhibitory Concentration (MIC)
[4] = read-out: Minimum Inhibitory Concentration (MIC), *S. marcescens No. 16-2, lactamase-producing strain, 10^6 CFU/ml
[5] = read-out: Minimum Inhibitory Concentration (MIC), *E. coli GN5482, lactamase-producing strain, 10^6 CFU/ml
[6] = A. calcoaceticus No. 4, read-out: Minimum Inhibitory Concentration (MIC)
[7] = read-out: Minimum Inhibitory Concentration (MIC), Ps. aeruginosa AK 109, 10^6 CFU/ml
[8] = IF03445, 16 h, read-out: Minimum Inhibitory Concentration (MIC), Ps. aeruginosa IF03445
[9] = read-out: Minimum Inhibitory Concentration (MIC), K. pneumoniae PCI-602
[10] = read-out: Minimum Inhibitory Concentration (MIC)
[11] = read-out: Minimum Inhibitory Concentration (MIC), A. calcoaceticus No. 4
[12] = 16 h, Ps. aeruginosa AKR17, read-out: Minimum Inhibitory Concentration (MIC)
[13] = 16 h, Ps. aeruginosa IF03445, read-out: Minimum Inhibitory Concentration (MIC)
[14] = 16 h, *K. oxytoca GN10650, lactamase-producing strain, read-out: Minimum Inhibitory Concentration (MIC)
[15] = Enterobacter cloacae, 963, 16 h, read-out: Minimum Inhibitory Concentration (MIC), E. cloacae 963

SMILES	MIC (Ps. cepacia 23) [µg/mL]	MIC (E. coli CSH(RE45)) [µg/mL]	MIC (E. coli CSH2 (RK1)) [µg/mL]	MIC (P. vulgaris No. 33) [µg/mL]	MIC (E. coli NIHJ JC2) [µg/mL]	MIC (E. cloacae Nek 39) [µg/mL]	MIC (S. marcescens IAM 1184) [µg/mL]	MIC (K. oxytoca GN10650; [1]) [µg/mL]	MIC (P. vulgaris HX-19; P. vulgaris HX-19, 10^6 CFU/ml) [µg/mL]	MIC (E. cloacae 963; [3]) [µg/mL]	MIC (S. marcescens No. 16-2; [4]) [µg/mL]	MIC (E. coli GN5482; [5]) [µg/mL]	MIC (K. pneumoniae No. 42) [µg/mL]	MIC (Ps. aeruginosa AK 109; [7]) [µg/mL]	MIC (Ps. aeruginosa IF03445; [8]) [µg/mL]	MIC (K. pneumoniae PCI-602; [9]) [µg/mL]	MIC (S. aureus 209P NIHJ-JC1; [10]) [µg/mL]	MIC (E. coli GN5482; [10]) [µg/mL]	MIC (A. calcoaceticus No. 4; [11]) [µg/mL]	MIC (Ps. aeruginosa AKR17; [12]) [µg/mL]	other results
CC(=O)Oc1ccc(-c2nc(SCC3=C(C(=O)O)N4C(=O)C(NC(=O)C(=NOC(C)(C)C(=O)O)c5csc(N)n5)C4SC3)sc2CC(=O)O)cc1OC(C)=O (stereo not drawn) [Example 59 (II), trisodium 7β-[2-(2-aminothiazol-4-yl)-2-(1-carboxylate-1-methylethoxyimino)acetamido]-3-[4-(3,4-diacetoxyphenyl)-5-carboxylatemethylthiazol-2-yl]-thiomethyl-3-cephem-4-carboxylate]	< 0.006	0.05	0.025	0.05	3.12	0.2	0.2	0.2	0.025	0.2	0.78	1.56	0.2	1.56	1.56						MIC (K. pneumoniae PCI-602; K. pneumoniae PCI-602, read-out: Minimum Inhibitory Concentration (MIC)): 0.025 µg/mL; MIC (S. aureus 209P NIHJ-JC1; [2]): 50 µg/mL; MIC (A. calcoaceticus No. 4; [6]): 0.2 µg/mL; MIC (Ps. aeruginosa AKR17; AKR17, 16 h, read-out: Minimum Inhibitory Concentration (MIC), Ps. aeruginosa AKR17): 1.56 µg/mL
CON=C(C(=O)NC1C(=O)N2C(C(=O)O)=C(CSc3nc(-c4ccc(O)c(O)c4)c(CC(=O)O)s3)CSC12)c1csc(N)n1 (stereo not drawn) [compound 58, disodium 7β-[2-(2-aminothiazol-4-yl)-2-methoxyiminoacetamido]-3-[4-(3,4-dihydroxyphenyl)-5-carboxylatemethylthiazol-2-yl]thiomethyl-3-cephem-4-carboxylate]	0.025	0.39	0.0125	0.025	0.39	1.56	0.1	12.5		0.1			0.1			< 0.006	12.5	3.12	0.39	> 100	MIC (P. vulgaris HX-19): 0.0125 µg/mL; MIC (S. marcescens No. 16-2; [10]): 3.12 µg/mL; MIC (Ps. aeruginosa AK 109; Ps. aeruginosa AK 109, 10^6 CFU/ml, read-out: Minimum Inhibitory Concentration (MIC)): > 100 µg/mL; MIC (Ps. aeruginosa IF03445; [13]): 25 µg/mL
CON=C(C(=O)NC1C(=O)N2C(C(=O)O)=C(CSc3nc(-c4ccc(OC(C)=O)c(OC(C)=O)c4)cs3)CSC12)c1csc(N)n1 (stereo not drawn) [compound 40, sodium 3-[4-(3,4-diacetoxyphenyl)-thiazol-2-yl]thiomethyl-7β-[2-(2-aminothiazol-4-yl)-2-methoxviminoacetamido]-3-cephem-4-carboxvlate]		0.2	0.025	0.1	0.2	0.39	0.1		0.0125		6.25	0.78	0.2			< 0.006			0.78	< 100	MIC (K. oxytoca GN10650; [14]): 1.56 µg/mL; MIC (S. aureus 209P NIHJ-JC1; [2]): 1.56 µg/mL; MIC (E. cloacae 963; [15]): 0.05 µg/mL; MIC (M. morganii GN5407): 0.1 µg/mL; MIC (Ps. aeruginosa AK 109; [10]): 3.12 µg/mL; MIC (Ps. aeruginosa IF03445; [13]): 1.56 µg/mL
Nc1nc(C(=NOCc2ccccc2)C(=O)NC2C(=O)N3C(C(=O)O)=C(CSc4nc(C(=O)O)c(-c5ccc(O)c(O)c5)s4)CSC23)cs1 (stereo not drawn) [Ex. 57]	< 0.006	0.1 (≈ 0.135 µM)	0.0125 (≈ 0.0169 µM)	0.025 (≈ 0.0337 µM)	0.78 (≈ 1.05 µM)	0.39 (≈ 0.526 µM)	0.1 (≈ 0.135 µM)		< 0.006		6.25 (≈ 8.44 µM)		0.1 (≈ 0.135 µM)	6.25 (≈ 8.44 µM)	3.12 (≈ 4.21 µM)	< 0.006	3.12 (≈ 4.21 µM)	3.12 (≈ 4.21 µM)	0.39 (≈ 0.526 µM)	> 100	MIC (K. oxytoca GN10650; [14]): 25 µg/mL (≈ 33.7 µM); MIC (E. cloacae 963; [15]): 0.05 µg/mL (≈ 0.0675 µM)
Nc1nc(C(=NOC2CCCC2)C(=O)NC2C(=O)N3C(C(=O)O)=C(CSc4nc(C(=O)O)c(-c5ccc(O)c(O)c5)s4)CSC23)cs1 (stereo not drawn) [Ex. 54, disodium 78-[2-(2-aminothiazol-4-yl)-2-cyclopentyloxyiminoacetamido]-3-[4-carboxylate-5-(3,4-dihydroxyphenyl)thiazol-2-yl]thiomethyl-3-cephem-4-carboxylate]	< 0.006	3.12	0.1	0.025	1.56	0.2	0.05	1.56	< 0.006	0.1	1.56	1.56	0.1		1.56	< 0.006	3.12			> 100	MIC (A. calcoaceticus No. 4; [6]): 0.2 µg/mL; MIC (Ps. aeruginosa AK 109; [10]): 12.5 µg/mL
C=CCON=C(C(=O)NC1C(=O)N2C(C(=O)O)=C(CSc3nc(C(=O)O)c(-c4ccc(O)c(O)c4)s3)CSC12)c1csc(N)n1 (stereo not drawn) [Ex. 55, disodium 78-[2-allyloxyimino-2-(2-aminothiazol-4-yl)acetamido]-3-[4-carboxylate-5-(3,4-dihydroxyphenyl)thiazol-2-yl]thiomethyl-3-cephem-4-carboxylate]	0.025	0.1	0.0125	0.025	0.78	0.39	0.1		< 0.006	0.1			0.1	6.25	3.12	< 0.006		3.12	0.1	> 100	MIC (K. oxytoca GN10650; [14]): 50 µg/mL; MIC (S. aureus 209P NIHJ-JC1; read-out: Minimum Inhibitory Concentration (MIC), S. aureus 209P NIHJ-JC1, 10^6 CFU/ml, 37° C., 16 hours): 6.25 µg/mL; MIC (S. marcescens No. 16-2; [10]): 3.12 µg/mL
